Results on nine compounds are retold here after patent publication US20070190129A1, “Sustained release dosage forms of ziprasidone” (Pfizer Inc., priority 2003, published 2007).

≈ marks a conversion by molar mass, not a printed value. Where a name gives a salt, the structure may show the parent alone. Read-outs that look alike come from different tables or passages of the source.

Data set [1] is described as follows: In vitro membrane permeation test. Format: physicochemical. The conditions noted are these: for Concentration (permeate solution): feed MFD solution, 100 μgA/mL if all dissolved, 37° C. The method, then: The ziprasidone coated crystals were evaluated in vitro using a membrane permeation test. An Accurel® PP 1E microporous polypropylene membrane was obtained from Membrana GmbH (Wuppertal, Germany). The membrane was washed in isopropyl alcohol and rinsed in methanol in a sonicating bath for 1 minute at ambient temperature, and then allowed to air dry at ambient temperature. The feed side of the membrane was then plasma-treated to render it hydrophilic by placing a sample of the membrane in a plasma chamber. The atmosphere of the plasma chamber was saturated with water vapor at a pressure of 550 mtorr. A plasma was then generated using radio frequency (RF) power inductively coupled into the chamber via annular electrodes at a power setting of 50 watts for 45 seconds. The contact angle of a drop of water placed on the surface of the plasma-treated membrane was about 40°. The contact angle of a drop of water placed on the permeate side of the same membrane was greater than about 110°.
A permeate reservoir was formed by gluing a sample of the plasma-treated membrane to a glass tube having an inside diameter of about 1 inch (2.54 cm) using an epoxy-based glue (LOCTITE® E-30CL HYSOL®) from Henkel Loctite Corp, Rocky Hill, Conn.). The feed-side of the membrane was oriented so that it was on the outside of the permeate reservoir, while the permeate-side of the membrane was oriented so that it was on the inside of the reservoir. The effective membrane area of the membrane on the permeate reservoir was about 4.9 cm^2. The permeate reservoir was placed into a glass feed reservoir. The feed reservoir was equipped with a magnetic stir bar and the reservoir was placed on a stir plate and the stir rate was set to 100 rpm during the test. The apparatus was placed into a chamber maintained at 37° C. for the duration of the test. Further details of the test apparatus and protocols are presented in co-pending U.S. patent application Ser. No. 60/557,897, entitled “Method and Device for Evaluation of Pharmaceutical Compositions,” filed Mar. 30, 2004 (attorney Docket No. PC25968), incorporated herein by reference.
To form the feed solution, a 1.39 mg sample of the coated crystals was weighed into the feed reservoir. To this was added 5 mL of MFD solution previously described, consisting of PBS solution containing 7.3 mM sodium taurocholic acid and 1.4 mM of 1-palmitoyl-2-oleyl-sn-glycero-3-phospocholine (0.5% NaTC/POPC). The concentration of ziprasidone in the feed solution, would have been 100 μgA/mL, if all of the ziprasidone had dissolved. The feed solution was mixed using a vortex mixer for 1 minute. Before the membrane contacted the feed solution, 5 mL of 60 wt% decenol in decane was placed into the permeate reservoir. Time zero in the test was the membrane was placed in contact with the feed solution. A […] aliquot of the permeate solution was collected at the times indicated. Samples were then diluted in […] IPA and analyzed using HPLC.
As a control, the membrane test was repeated using a 0.5-mg sample of crystalline ziprasidone alone, so that the concentration of drug would have been 100 μg/mL, if all of the drug had dissolved.
The maximum flux of drug across the membrane (in units of mgA/cm^2-min) was determined by performing a least-squares fit to the data in Table 3 from 0 to 60 minutes to obtain the slope, multiplying the slope by the permeate volume (5 mL), and dividing by the membrane area (4.9 cm^2).

A short description of data set [2]: physchem. From the text:
To achieve efficacious blood levels over long periods of time, the sustained release dosage form should release ziprasidone to the gastrointestinal tract in a manner that allows ziprasidone to be absorbed for a sustained length of time. However, formulating ziprasidone into a sustained release dosage form presents a number of problems. […] Such low solubility at intestinal pH inhibits absorption of ziprasidone in the intestines.
In one embodiment, the solubility-improved form of ziprasidone is a high solubility salt form. It is known that some low-solubility drugs may be formulated in highly soluble salt forms that provide temporary improvements in the concentration of the drug in a use environment relative to another salt form of the drug.

Data set [3] in a line: Microcentrifuge dissolution test in MFD solution. Format: physicochemical. On the set-up: AUC: concentration or dose not given beside the values. The conditions noted are these: for AUC / Dissolved Ziprasidone Concentration: MFD solution pH 6.5, 37° C.; for Dissolved Ziprasidone Concentration: 200 μgA/mL if all dissolved. The method, then: The tests were run in duplicate. The tubes were placed in a 37° C. temperature-controlled chamber, and 1.8 mL MFD solution at pH 6.5 and 290 mOsm/kg was added to each respective tube. The samples were quickly mixed using a vortex mixer for about 60 seconds. The samples were centrifuged at 13,000 G at 37° C. for 1 minute prior to collecting a sample. The resulting supernatant solution was then sampled and diluted 1:5 (by volume) with methanol. Samples were analyzed by high-performance liquid chromatography (HPLC) at a UV absorbance of 315 nm using a Zorbax RxC8 Reliance column and a mobile phase consisting of 55% (50 mM potassium dihydrogen phosphate, pH 6.5)/45% acetonitrile. Drug concentration was calculated by comparing UV absorbance of samples to the absorbance of drug standards. The contents of each tube were mixed on the vortex mixer and allowed to stand undisturbed at 37° C. until the next sample was taken. Samples were collected at 4, 10, 20, 40, 90, and 1200 minutes following administration to the MFD solution.
A similar test was performed with the crystalline ziprasidone free base as a control, and a sufficient amount of material was added so that the concentration of compound would have been 200 μgA/mL, if all of the ziprasidone had dissolved.
The concentration of ziprasidone obtained in these tests were used to determine the maximum dissolved concentration of ziprasidone (“MDC90”) and the area under the concentration-versus time (“AUC90”) during the initial ninety minutes.

For data set [4] the following is noted: with food versus without; cited from earlier work.
Data set [5] has as its target D2 receptor (Homo sapiens, UniProt P14416). The conditions noted are these: cited from earlier work.
The mark [6] stands for this setting: at the pH of the saturated solution.
Where [7] appears, read: initial ninety minutes, MFD solution pH 6.5.

Sequence of D2 receptor (P14416 whole entry): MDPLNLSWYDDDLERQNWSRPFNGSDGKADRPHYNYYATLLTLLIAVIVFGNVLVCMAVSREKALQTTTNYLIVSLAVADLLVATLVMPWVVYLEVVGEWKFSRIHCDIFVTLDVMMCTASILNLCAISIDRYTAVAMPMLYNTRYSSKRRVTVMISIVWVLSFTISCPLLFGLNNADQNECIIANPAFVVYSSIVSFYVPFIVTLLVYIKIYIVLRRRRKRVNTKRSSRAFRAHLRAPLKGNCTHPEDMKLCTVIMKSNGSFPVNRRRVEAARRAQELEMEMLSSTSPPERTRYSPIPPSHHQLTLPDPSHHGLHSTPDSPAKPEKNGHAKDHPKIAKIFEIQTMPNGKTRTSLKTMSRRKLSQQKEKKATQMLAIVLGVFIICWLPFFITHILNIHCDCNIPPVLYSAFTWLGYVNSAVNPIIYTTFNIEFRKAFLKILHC

On to `Cl.O=C1Cc2cc(CCN3CCN(c4nsc5ccccc45)CC3)c(Cl)cc2N1` [Crystalline Ziprasidone HCl], for which the “Concentration (permeate solution)” value in data set [1] (0 min) was found to be 0.0 μgA/mL; in data set [1] (20 min), 5.2 μgA/mL; in data set [1] (40 min) it was 8.1 μgA/mL; in data set [1] (60 min) it was 10.0 μgA/mL; in data set [1] (90 min), 11.4 μgA/mL; in data set [1] (120 min) it was 12.9 μgA/mL. The results for the “Concentration (permeate solution)” value in data set [1] (180 min), in data set [1] (245 min) and in data set [1] (360 min) were 18.1 μgA/mL, 20.9 μgA/mL and 22.6 μgA/mL, respectively. This compound had a Maximum flux of Ziprasidone in data set [1] (least-squares fit 0 to 60 minutes, permeate volume 5 mL, membrane area 4.9 cm^2) of 0.16 µgA/cm²·min.
For `O=C(O)c1ccccc1O` [Salicylate], in data set [2], the “Aqueous Solubility” value was 58 µg/mL and the “pH of Saturated Solution” value is given as 5.5.
`O=C1Cc2cc(CCN3CCN(c4nsc5ccccc45)CC3)c(Cl)cc2N1` [Ziprasidone hydrochloride monohydrate, ziprasidone hydrochloride monohydrate]: the “AUC90 (area under the concentration-versus time)” value in data set [3] (initial ninety minutes, MFD solution pH 6.5, hydrochloride monohydrate) is reported as 1,700 min*μgA/mL. In data set [3] (pH 6.5), the “MDC90 (maximum dissolved concentration of ziprasidone)” value stood at 22 μgA/mL.
On to `O=C1Cc2cc(CCN3CCN(c4nsc5ccccc45)CC3)c(Cl)cc2N1` [ziprasidone, 5-[2-[4-(1,2-benzisothiazol-3-yl)-1-piperazinyl]ethyl]-6-chloro-1,2-dihydro-2H-indol-2-one], for which the “absorption in the presence of food” value in data set [4] is “increased up to two-fold”. Besides, the D2 occupancy result in data set [5] (blood ziprasidone concentration 16 ng/ml) was “approximately 50%”; in data set [5] (blood ziprasidone concentration 30 ng/ml), “approximately 65%”; in data set [5] (blood ziprasidone concentration 50 ng/ml), “approximately 75%”. For the same compound, the “pH of Saturated Solution” value in data set [2] is on record as 9.8. Further, the solubility in data set [2] (pH 6.5, aqueous buffer) was approximately 0.2 µg/mL (≈ 0.484 µM); in data set [2] (pH 9.8, water), 0.2 µg/mL (≈ 0.484 µM). In addition, the “AUC90 (area under the concentration-versus time)” value in data set [3] (initial ninety minutes, MFD solution pH 6.5, listed as Ziprasidone free base) is listed as 120 min*μgA/mL. The “MDC90 (maximum dissolved concentration of ziprasidone)” value in data set [3] (pH 6.5) is recorded as 2 μgA/mL.
As to Fumarate, in data set [2], the “Aqueous Solubility” value came out at 2000 µg/mL and the “pH of Saturated Solution” value amounted to 2.5.
On to Maleate, for which, in data set [2], the “Aqueous Solubility” value amounted to 118 µg/mL and the “pH of Saturated Solution” value was 4.3.
As for Phosphate, in data set [2], the “pH of Saturated Solution” value came out at 2.3. Further, the “Aqueous Solubility” value in data set [2] (setting [6]) came out at 37 µg/mL.
The corresponding values for Tosylate are 6.0 and 64 µg/mL.
On to ziprasidone mesylate trihydrate, for which the AUC in data set [3] (0 min) is listed as 0 min-μgA/mL; in data set [3] (4 min) it was 110 min-μgA/mL; in data set [3] (10 min), 380 min-μgA/mL; in data set [3] (20 min), 640 min-μgA/mL; in data set [3] (40 min), 970 min-μgA/mL; in data set [3] (90 min), 1,600 min-μgA/mL. In addition, in data set [3] (1200 min), the AUC is on record as 11,200 min-μgA/mL. Besides, the “Dissolved Ziprasidone Concentration” value in data set [3] (0 min) turned out to be 0 μgA/mL; in data set [3] (4 min), 55 μgA/mL; in data set [3] (10 min) it was 33 μgA/mL; in data set [3] (20 min) it was 20 μgA/mL; in data set [3] (40 min), 13 μgA/mL; in data set [3] (90 min), 11 μgA/mL. Further, the “Dissolved Ziprasidone Concentration” value in data set [3] (1200 min) is on record as 6 μgA/mL. Moreover, the “AUC90 relative to that provided by the free base” value in data set [3] (MFD solution pH 6.5) is 13 fold. The “MDC90 relative to that provided by the free base” value in data set [3] (MFD solution pH 6.5) is recorded as 27 fold. The “AUC90 (area under the concentration-versus time)” value in data set [3] (setting [7]) is on record as 1,600 min*μgA/mL. Also, the “MDC90 (maximum dissolved concentration of ziprasidone)” value in data set [3] (setting [7]) is recorded as 55 μgA/mL.
